Entries after “also recorded” stand apart in the source; their conditions may differ.
Legend:
Assay type in all cases: cell-based
MV-4-11 cells = experiment: CellTiter-Glo cell viability, MV-4-11 cells; conditions: for loss of cellular viability (toxicity) versus monomers alone: cotreated 1:1 with each of CRBN ligands 8046, 8047 and 8066, MV-4-11, 72 h, 10 nM-100 μM
Procedure: CellTiter-Glo® 2.0 Cell Viability Assay (Promega) was carried out following the manufacturer's recommendations. Cells were seeded at a density of 1000 cells/well in a white 96 well plates (Corning, #3917) in a total volume of 100 μl with respective monomers, combinations of BRD ligands together with E3 ligase ligands or vehicle control treatment. After a 72 h incubation, 100 ul of the CellTiter-Glo® substrate was added per well and luminescence was read on a Spectramax M5 (Molecular Devices). Dose-response curves were generated using Graphpad Prism software.
MV-4-11 cells (5×10^4) were treated for 24 hours with the sample compounds solubilized in DMSO. The compounds were added at 1 nM-100 μM each. Cellular viability was determined using the CellTiter-Glo® Luminescent Cell Viability Assay (Promega) described above. FIGS. 19-22 depict the CURE-PRO-mediated loss of cellular viability for BRD monomers (JQ1 derivatives comprising of catechol linkers), and CRBN ligand, 8049 (pomalidomide derivatives comprising boronic acid linkers) combined in a 1:1 ratio.
MV-4-11 cells (1×10^4) were treated for 72 hours with the compounds solubilized in DMSO. Compounds were added at 10 nM-100 μM each. Cellular viability was determined using the CellTiter-Glo® Luminescent Cell Viability Assay (Promega) described above. FIGS. 47-54 depict the CURE-PRO-mediated loss of cellular viability for BRD monomers (JQ1 derivatives comprising of boronic acid linkers), and CRBN ligands, 8046, 8047 and 8066 (pomalidomide derivatives comprising diol linkers) combined in a 1:1 ratio.

BRD4 [1] = molecular target: T1, BRD4 (Homo sapiens, UniProt O60885); experiment: Summary of BRD4 degradation by CURE-PRO pairs, estimated from Western Blot or WES; set-up: endogenous in cells; conditions: for Degradation of BRD4, combination with CRBN ligand 8046: Table 1, aryl-boronic acid BRD4 ligand + 8046; for Degradation of BRD4, combination with CRBN ligand 8066: Table 1, aryl-boronic acid BRD4 ligand + 8066
Summary of the method: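 Namalwa, Ramos, HeLa, MCF7, HT29 or HCT116 cells treated 24 h with compounds in DMSO; RIPA lysates analysed by Western blot (ECL) or capillary WES immunodetection. Check mark denotes 30% to 70% or higher protein degradation.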

BRD4 [2] = molecular target: T1, BRD4; experiment: CURE-PRO-mediated BRD4 degradation in HeLa cells, Western blot; set-up: endogenous in cells; host or cells: HeLa; conditions: 24 h, 10 μM each
Summary of the method: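 HeLa cells (2.5×10^6) treated 24 h with DMSO-solubilized compounds, degrader pairs combined 1:1, at 1 nM-1 μM, 1-10 μM, 10 μM or 10 and 100 μM each depending on series. RIPA lysates (10-20 μg protein) run on SDS-PAGE and immunoblotted for BRD4 with ECL detection.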

[3] = co-treated 1:1 with CRBN ligand 8046, HeLa
[4] = co-treated 1:1 with CRBN ligand 8047, HeLa
[5] = co-treated 1:1 with CRBN ligand 8066, HeLa

Row | SMILES | loss of cellular viability (toxicity) versus monomers alone (MV-4-11 cells) | Degradation of BRD4, combination with CRBN ligand 8046 (BRD4 [1]) | Degradation of BRD4, combination with CRBN ligand 8047 (BRD4 [1]; Table 1, aryl-boronic acid BRD4 ligand + 8047) | Degradation of BRD4, combination with CRBN ligand 8066 (BRD4 [1]) | BRD4 degradation (BRD4 [2]; [3]) | BRD4 degradation (BRD4 [2]; [4]) | BRD4 degradation (BRD4 [2]; [5]) | Degradation of BRD4, combination with MDM2 ligand 8314 (BRD4 [1]; Table 2, aryl-boronic acid BRD4 ligand + 8314) | Degradation of BRD4, combination with VHL ligand 8305 (BRD4 [1]; Table 3, aryl-boronic acid BRD4 ligand + 8305) | loss of cellular viability (toxicity) (MV-4-11 cells; co-dosed 1:1 with CRBN ligand 8049, MV-4-11, 24 h, 1 nM-100 μM each)
1 | COc1ccc2c(c1)C(c1ccc(Cl)cc1)=N[C@@H](CC(=O)NCCNC(=O)/C=C/c1ccc(B(O)O)cc1)c1nnc(C)n1-2 [BRD-E29, (4-((E)-3-((2-(2-((4S)-6-(4-chlorophenyl)-8-methoxy-1-methyl-4H-benzo[f][1,2,4]triazolo[4,3-a][1,4]diazepin-4-yl)acetamido)ethyl)amino)-3-oxoprop-1-en-1-yl)phenyl)boronic acid] | reduced viability; also recorded: increased toxicity | √ (A black check mark indicates efficacy of 30% to 70% or higher protein degradation) | √ (A black check mark indicates efficacy of 30% to 70% or higher protein degradation) | √ (A black check mark indicates efficacy of 30% to 70% or higher protein degradation) | causes degradation of BRD4; also recorded: Degradation is noted | causes degradation of BRD4; also recorded: Degradation is noted | causes degradation of BRD4; also recorded: Degradation is noted | – | – | –
2 | COc1ccc2c(c1)C(c1ccc(Cl)cc1)=N[C@@H](CC(=O)NCCOCCOCCNC(=O)c1cccc(B(O)O)c1)c1nnc(C)n1-2 [BRD-E46] | reduced viability; also recorded: increased toxicity | √ (A black check mark indicates efficacy of 30% to 70% or higher protein degradation) | – | √ (A black check mark indicates efficacy of 30% to 70% or higher protein degradation) | causes degradation of BRD4; also recorded: Degradation is noted | – | causes degradation of BRD4; also recorded: Degradation is noted | – | – | –
3 | CCNC(=O)C[C@@H]1N=C(c2ccc(Cl)cc2)c2cc(Sc3ccc(B(O)O)cc3)ccc2-n2c(C)nnc21 [BRD-E75, (4-(((4S)-6-(4-chlorophenyl)-4-(2-(ethylamino)-2-oxoethyl)-1-methyl-4H-benzo[f][1,2,4]triazolo[4,3-a][1,4]diazepin-8-yl)thio)phenyl)boronic acid] | reduced viability; also recorded: increased toxicity | – | – | – | – | – | – | √ (A black check mark indicates efficacy of 30% to 70% or higher protein degradation) | – | –
4 | CCNC(=O)C[C@@H]1N=C(c2ccc(Cl)cc2)c2cc(Sc3cccc(B(O)O)c3)ccc2-n2c(C)nnc21 [BRD-E76] | reduced viability; also recorded: increased toxicity | √ (A black check mark indicates efficacy of 30% to 70% or higher protein degradation) | – | – | causes degradation of BRD4 | causes degradation of BRD4 | – | – | – | –
5 | CCNC(=O)C[C@@H]1N=C(c2ccc(Cl)cc2)c2cc(OCCCCCCCNC(=O)c3ccc(B(O)O)cc3)ccc2-n2c(C)nnc21 [BRD-E78] | reduced viability; also recorded: increased toxicity | – | – | – | – | – | – | – | √ (A black check mark indicates efficacy of 30% to 70% or higher protein degradation) | –
6 | COc1ccc2c(c1)C(c1ccc(Cl)cc1)=N[C@@H](CC(=O)NCCCCCNC(=O)c1cccc(O)c1O)c1nnc(C)n1-2 [BRD-N8, N-(5-(2-((4S)-6-(4-chlorophenyl)-8-methoxy-1-methyl-4H-benzo[f][1,2,4]triazolo[4,3-a][1,4]diazepin-4-yl)acetamido)pentyl)-2,3-dihydroxybenzamide] | – | – | – | – | – | – | – | – | – | concentration-dependent loss in cellular viability; also recorded: increased toxicity

— patent US20230285570A1, “THERAPEUTICALLY USEFUL CURE-PRO MOLECULES FOR E3 LIGASE MEDIATED DEGRADATION OF PROTEINS, AND METHODS OF MAKING AND USING THEM” (CORNELL UNIVERSITY, priority 2020, published 2023)
